Residues, ends and D or L forms follow the SMILES beside them.
Assays:
[1] = tested on: human neuroblast line SH-SY5Y; experiment: ApoTox-Glo Triplex assay (cell viability, cytotoxicity, caspase-3 activity); type: cell-based; settings: neuronal cells
Procedure: Human neuroblast line SH-SY5Y cells were cultured in 100 μl of dulbecco modified eagle medium (DMEM) supplemented with 10% (v/v) fetal bovine serum (FBS) and 1% (w/v) antibiotic (penicillin-streptomycin) at 37° C. and under the condition of 5% CO2.
Cells were seeded in a 96-well plate containing growth medium (DMEM medium containing 10% FBS, 100 units/ml penicillin, and […] streptomycin) in such a way that 100 μl of the culture was seeded in every cell at the population of 2×10^4 cells, and cultured under the condition of 5% CO2 at 37° C. When cells were about 70-90% confluent, they were transformed with pCAX-APP Swe/Ind for 8 hours by using Lipofectamine 3000 according to the manufacturers instructions. Then, the medium was removed by suction and replaced with fresh 100 μl of growth medium containing 0.5 to 20 μM osmotin-peptide. The cells in the fresh medium were incubated for 24 hours.
After 24 hours, ApoTox-Glo™ Triplex assay using Glomax-Multi Detection system was performed according to the manufacturer's instructions to confirm cell viability, cytotoxicity assay, and caspase-3 activity.

[2] = Brain transfer of osmotin peptide-FITC after IP and tail vein (IV) injection, confocal fluorescence; type: in vivo, mice; settings: for migration to the hippocampus of the brain: four hours later, FIG. 3
Procedure: In addition, osmotin peptide-FITC was administered to the mice by intraperitoneal (IP) injection and tail vein injection (IV). Four hours later, the mice were fixed by transcardial perfusion with 4% (v/v) ice-cold paraformaldehyde, and the brain was harvested and post-fixed in 4% (v/v) paraformaldehyde for 72 hours, and finally, transferred to a 20% (w/v) sucrose for 72 hours.
The brain was infiltrated with OCT (optimal cutting temperature compound) under liquid nitrogen, and a 14 μm coronal section was mounted on a ProbeOn Plus slide.
Slides for immunofluorescence analysis were washed twice with 0.01 M PBS buffer for 15 minutes. The sections were covered with proteinase K and incubated for 5 minutes in a humid chamber at the temperature of 37° C. Incubation was performed for one hour in a blocking solution containing 5% (v/v) normal goat serum dissolved in PBS buffer and 0.3% (v/v) Triton X-100. After the blocking process, the mounting cover slips and sections were observed on a confocal laser-scanning microscope (Flouview FV 1000).

Compound: C[C@@H](O)[C@H](NC(=O)[C@@H]1CCCN1C(=O)CNC(=O)[C@H](CS)NC(=O)[C@@H]1CCCN1C(=O)CNC(=O)[C@H](CCC(N)=O)NC(=O)[C@@H](NC(=O)[C@@H](N)CS)[C@@H](C)O)C(=O)O [osmotin peptide] (H-CTQGPCGPT-OH)
- cytotoxicity [1]: little cytotoxicity
- migration to the hippocampus of the brain ([2]; intraperitoneal (IP) injection): migrated to the hippocampus of the brain
- migration to cortex and hypothalamus of the brain ([2]; intravenous injection, FIG. 4): migrated to cortex and hypothalamus of the brain
- migration to the hippocampus of the brain ([2]; tail vein injection (IV)): migrated to the hippocampus of the brain

— patent publication US10471119B2, “Composition for preventing, ameliorating, or treating neurological disease containing osmotin peptide as active ingredient” (INDUSTRY-ACADEMIC COOPERATION FOUNDATION GYEONGSANG …, priority 2015, dated 2019)
